The target in test [1] is T1, 11-beta-hydroxysteroid dehydrogenase 1 (Homo sapiens, UniProt P28845). In words: Inhibition of human recombinant 11beta-HSD1 expressed in HEK293 cells assessed as reduction of cortisone to cortisol conversion by scintillation counting. The class given is cell-based.
The target in test [2] is T2, 11-beta-hydroxysteroid dehydrogenase type 2 (Homo sapiens) (UniProt P80365).
T2 sequence (whole entry): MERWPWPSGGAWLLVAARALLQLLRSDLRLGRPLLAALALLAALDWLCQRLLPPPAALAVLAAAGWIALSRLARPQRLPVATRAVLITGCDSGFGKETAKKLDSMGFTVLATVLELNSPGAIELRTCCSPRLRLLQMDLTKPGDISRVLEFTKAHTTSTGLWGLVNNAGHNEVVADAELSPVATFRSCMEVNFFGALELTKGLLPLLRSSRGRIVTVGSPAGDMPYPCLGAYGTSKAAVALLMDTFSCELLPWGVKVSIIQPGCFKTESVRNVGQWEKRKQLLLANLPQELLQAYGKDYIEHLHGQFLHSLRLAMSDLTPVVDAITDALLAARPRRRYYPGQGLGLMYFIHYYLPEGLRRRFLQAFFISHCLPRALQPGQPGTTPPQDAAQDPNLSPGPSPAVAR
Put plainly: Inhibition of human recombinant 11beta-HSD2 expressed in HEK293 cells assessed as reduction of […] conversion at 20 uM by scintillation counting. Format: cell-based.

Test [3] addresses T1, 11-beta-hydroxysteroid dehydrogenase 1. In words: Inhibition of human recombinant 11beta-HSD1 expressed in HEK293 cells assessed as partial reduction of cortisone to cortisol conversion at 3 uM by scintillation counting. The class given is cell-based.
Target sequence in this assay (P28845 whole entry, looked up): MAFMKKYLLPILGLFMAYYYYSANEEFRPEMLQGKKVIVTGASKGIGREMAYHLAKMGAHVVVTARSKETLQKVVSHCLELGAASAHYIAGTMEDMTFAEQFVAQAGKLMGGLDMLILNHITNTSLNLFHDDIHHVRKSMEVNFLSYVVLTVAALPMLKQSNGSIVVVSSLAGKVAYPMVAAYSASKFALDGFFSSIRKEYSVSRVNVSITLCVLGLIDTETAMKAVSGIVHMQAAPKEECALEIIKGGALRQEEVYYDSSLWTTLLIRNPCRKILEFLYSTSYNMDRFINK
Test [4] shares this target. Put plainly: Inhibition of human recombinant 11beta-HSD1 expressed in HEK293 cells assessed as reduction of cortisone to cortisol conversion at 20 uM by scintillation counting. The class given is cell-based.
Target sequence in this assay (P28845 whole entry, looked up): as above
For test [5], the target named is T2, 11-beta-hydroxysteroid dehydrogenase type 2 (Homo sapiens). In words: Inhibition of human recombinant 11beta-HSD2 expressed in HEK293 cells assessed as reduction of […] conversion up to 20 uM by scintillation counting. Format: cell-based.
The target in test [6] is T1, 11-beta-hydroxysteroid dehydrogenase 1. The note with it: HEK293, 4 uM.
Target sequence in this assay (P28845 whole entry, looked up): as above
Description: Inhibition of human recombinant 11beta-HSD1 expressed in HEK293 cells assessed as partial reduction of cortisone to cortisol conversion at 4 uM by scintillation counting
Test [7] has the same target. Put plainly: Inhibition of human recombinant 11beta-HSD1 expressed in HEK293 cells assessed as partial reduction of cortisone to cortisol conversion at 1.5 uM by scintillation counting. Format: cell-based.
Target sequence in this assay (P28845 whole entry, looked up): as above

Active and inactive are the calls of the source. The calls are words filed in the database; no cut-off is given here.

As usually defined, the IC50 is the concentration that gives 50% inhibition. Take `CC(=O)O[C@H]1CC[C@]2(C)[C@H]3C(=O)C=C4[C@@H]5[C@@H](C)[C@H](C)CC[C@]5(C(=O)O)CC[C@@]4(C)[C@]3(C)CC[C@H]2C1(C)C` [11-OXOURSOLIC ACID ACETATE]: the half-inhibitory concentration (IC50) in test [1] (read-out: IC50) is 1350 nM. The inhibition is the change of the read-out against control, counted positive when it falls. Turning to `C[C@H]1[C@H](C)CC[C@]2(C(=O)O)CC[C@]3(C)C(=CC[C@@H]4[C@@]5(C)C[C@@H](O)C(=O)C(C)(C)[C@@H]5CC[C@]43C)[C@H]12`, in test [2], the outcome was inactive. The inhibition result in test [3] was “Active”. As to `C[C@@H]1CC[C@]2(C(=O)O)CC[C@]3(C)C(=CC[C@@H]4[C@@]5(C)C[C@@H](O)[C@H](O)C(C)(C)[C@@H]5CC[C@]43C)[C@@H]2[C@]1(C)O` [TOMENTIC ACID], in test [1] (hek293), the IC50 result is “Not Active”. For the same molecule, the outcome in test [2] was inactive. As for `CC(=O)O[C@@H]1CC[C@@]2(C)[C@@H](CC[C@]3(C)[C@@H]2C(=O)C=C2[C@@H]4[C@@H](C)[C@H](C)CC[C@]4(C)CC[C@]23C)[C@@]1(C)C(=O)O`, the inhibition came out at 63% in test [4] and 52% in test [2]. Turning to `C[C@@H]1CC[C@]2(C(=O)O)CC[C@]3(C)C(=CC[C@@H]4[C@@]5(C)C[C@@H](O)[C@H](OC(=O)/C=C\c6ccc(O)cc6)C(C)(C)[C@@H]5CC[C@]43C)[C@@H]2[C@]1(C)O`, the IC50 result in test [1] (hek293) was “Not Active”. In addition, the outcome in test [2] was inactive. Take `C[C@@H]1CC[C@]2(C(=O)O)CC[C@]3(C)C(=CC[C@@H]4[C@@]5(C)C[C@@H](O)[C@H](OC(=O)/C=C/c6ccc(O)cc6)C(C)(C)[C@@H]5CC[C@]43C)[C@@H]2[C@]1(C)O`: the half-inhibitory concentration (IC50) entry in test [1] (hek293) is “Not Active”. Also, the outcome in test [2] was inactive.

With `C[C@H]1[C@H](C)CC[C@]2(C(=O)O)CC[C@]3(C)C(=CC[C@@H]4[C@@]5(C)C[C@@H](O)[C@H](O)C(C)(C)[C@@H]5CC[C@]43C)[C@H]12` [COROSOLIC ACID], in test [1], the inhibition entry is “Dose-dependent effect”. Moreover, in test [1] (read-out: IC50), the IC50 is 810 nM. Further, the inhibition entry in test [5] is “inactive”.

As for `COC(=O)[C@]12CC[C@@H](C)[C@H](C)[C@H]1C1=CC[C@@H]3[C@@]4(C)C[C@@H](O)[C@H](O)C(C)(C)[C@@H]4CC[C@@]3(C)[C@]1(C)CC2` [COROSOLIC ACID METHYL ESTER], in test [1] (hek293), the IC50 result is given as “Not Active”. The result in test [2] was inactive. Take `C[C@H]1[C@H](C)CC[C@]2(C(=O)O)CC[C@]3(C)C(=CC(=O)[C@@H]4[C@@]5(C)CC[C@H](O)C(C)(C)[C@@H]5CC[C@]43C)[C@H]12`: in test [1] (read-out: IC50), the 50% inhibitory concentration (IC50) is 2060 nM. Consider `COC(=O)[C@]12CC[C@@H](C)[C@H](C)[C@H]1C1=CC[C@@H]3[C@@]4(C)C[C@@H](O)[C@@H](O)C(C)(C)[C@@H]4CC[C@@]3(C)[C@]1(C)CC2`, for which the IC50 in test [1] (read-out: IC50) came to 5200 nM. Further, the result in test [2] was inactive.

On to `COC(=O)[C@]12CC[C@@H](C)[C@@](C)(O)[C@H]1C1=CC[C@@H]3[C@@]4(C)C[C@@H](O)[C@H](O)C(C)(C)[C@@H]4CC[C@@]3(C)[C@]1(C)CC2` [TORMENTIC ACID METHYL ESTER], for which, in test [1] (read-out: IC50), the IC50 was 9400 nM. Moreover, the result in test [2] was inactive. In addition, in test [6], the inhibition result is “Active”. Consider `C[C@H]1[C@H](C)CC[C@]2(CO)CC[C@]3(C)C(=CC[C@@H]4[C@@]5(C)CC[C@H](O)C(C)(C)[C@@H]5CC[C@]43C)[C@H]12` [UVAOL], for which the IC50 entry in test [1] (hek293) is listed as “Not Active”. Also, the outcome in test [2] was inactive. On to `C[C@H]1[C@H](C)CC[C@]2(C)CC[C@]3(C)C(=CC(=O)[C@@H]4[C@@]5(C)CC[C@@H](O)[C@](C)(C(=O)O)[C@@H]5CC[C@]43C)[C@H]12`, for which the inhibition came out at 52% in test [4] and 68% in test [2]. Turning to `COC(=O)[C@]12CCC(C)(C)C[C@H]1C1=CC[C@@H]3[C@@]4(C)C[C@@H](O)[C@H](O)C(C)(C)[C@@H]4CC[C@@]3(C)[C@]1(C)CC2` [MASLINIC ACID METHYL ESTER], in test [1] (hek293), the IC50 entry is recorded as “Not Active”. Besides, in test [2], the outcome was inactive.

`C[C@H](CC(=O)C[C@@H](C)[C@H]1C[C@H](O)[C@@]2(C)C3=C(C(=O)C[C@]12C)[C@@]1(C)CCC(=O)C(C)(C)[C@@H]1C[C@@H]3O)C(=O)O`: the inhibition in test [4] came out at 46%; in test [2], 76%. As for `C[C@H]1[C@H](C)CC[C@]2(C(=O)O)CC[C@]3(C)C(=CC[C@@H]4[C@@]5(C)CC[C@H](O)C(C)(C)[C@@H]5CC[C@]43C)[C@H]12`, the inhibition entry in test [7] was “Active”. Further, the result in test [2] was inactive.

`COC(=O)[C@]12CC[C@@H](C)[C@H](C)[C@H]1C1=CC[C@@H]3[C@@]4(C)CC[C@H](O)C(C)(C)[C@@H]4CC[C@@]3(C)[C@]1(C)CC2`: the outcome in test [2] was inactive. `CC[C@H](CC[C@@H](C)[C@H]1CC[C@H]2[C@@H]3CC=C4C[C@@H](O)CC[C@]4(C)[C@H]3CC[C@]12C)C(C)C`: the outcome in test [2] was inactive.

These data come from ChEMBL document CHEMBL1156911 (Bioorg Med Chem, 2010).
